Measured values taken from ChEMBL document CHEMBL5236546, “Potent and Subtype-Selective Dopamine D2 Receptor Biased Partial Agonists Discovered via an Ugi-Based Approach” (J Med Chem, 2021).

Tests used:
[1] = molecular target: D(2) dopamine receptor (Homo sapiens, UniProt P14416)
Description: Partial agonist activity at D2 receptor (unknown origin) assessed as increase in cAMP accumulation

[2] = molecular target: D(3) dopamine receptor (Homo sapiens, UniProt P35462)
Description: Partial agonist activity at human D3 receptor assessed as inhibition constant

[3] = molecular target: T1, D(4) dopamine receptor (Homo sapiens, UniProt P21917)
T1 sequence (P21917 whole entry): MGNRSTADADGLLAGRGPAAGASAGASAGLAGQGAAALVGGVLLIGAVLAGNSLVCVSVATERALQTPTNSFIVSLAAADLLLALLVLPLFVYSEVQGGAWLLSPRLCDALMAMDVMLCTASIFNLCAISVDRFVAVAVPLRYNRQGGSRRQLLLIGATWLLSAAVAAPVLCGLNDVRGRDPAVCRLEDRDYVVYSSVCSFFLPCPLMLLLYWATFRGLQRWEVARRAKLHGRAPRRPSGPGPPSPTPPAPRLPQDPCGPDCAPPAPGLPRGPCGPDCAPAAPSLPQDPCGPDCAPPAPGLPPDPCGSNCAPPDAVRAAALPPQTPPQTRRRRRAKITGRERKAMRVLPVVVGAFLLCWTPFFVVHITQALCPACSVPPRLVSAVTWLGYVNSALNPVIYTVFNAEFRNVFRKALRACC
Description: Partial agonist activity at human D4 receptor assessed as inhibition constant

D(3) dopamine receptor, sequence (P35462 whole entry): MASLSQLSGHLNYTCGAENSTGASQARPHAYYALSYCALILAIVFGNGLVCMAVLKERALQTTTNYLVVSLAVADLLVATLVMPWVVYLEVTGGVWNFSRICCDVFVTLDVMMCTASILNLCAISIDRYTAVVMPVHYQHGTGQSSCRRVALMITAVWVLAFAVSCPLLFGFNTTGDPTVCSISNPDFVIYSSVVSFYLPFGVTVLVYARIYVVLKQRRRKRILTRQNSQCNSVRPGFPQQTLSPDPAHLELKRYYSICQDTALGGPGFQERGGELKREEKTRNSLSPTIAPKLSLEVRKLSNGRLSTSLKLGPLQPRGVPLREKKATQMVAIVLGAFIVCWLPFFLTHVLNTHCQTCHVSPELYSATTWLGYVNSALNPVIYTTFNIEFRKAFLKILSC
D(2) dopamine receptor, sequence (P14416 whole entry): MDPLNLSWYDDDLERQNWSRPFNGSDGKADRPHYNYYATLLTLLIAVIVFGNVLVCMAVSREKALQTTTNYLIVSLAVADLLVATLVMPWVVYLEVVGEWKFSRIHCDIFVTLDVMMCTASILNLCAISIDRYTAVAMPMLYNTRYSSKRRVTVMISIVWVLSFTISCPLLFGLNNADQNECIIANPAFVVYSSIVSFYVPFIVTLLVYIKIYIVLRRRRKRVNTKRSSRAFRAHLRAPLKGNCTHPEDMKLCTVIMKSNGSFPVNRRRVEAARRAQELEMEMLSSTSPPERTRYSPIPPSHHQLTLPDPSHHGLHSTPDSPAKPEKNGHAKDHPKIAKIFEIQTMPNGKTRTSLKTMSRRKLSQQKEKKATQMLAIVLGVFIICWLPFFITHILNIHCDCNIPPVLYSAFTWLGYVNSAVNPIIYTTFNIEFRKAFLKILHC

Which EC50 [1] does the source give for `Cn1ccc2c(N3CCN(CCCCOc4ccc5c(c4)NC(=O)CC5)CC3)cccc21` here?
Its EC50 is “Not Active”.

With `CC1Cc2ccccc2N1C(=O)NCCCCN(C)[C@H]1Cc2cccc3[nH]c(=O)n(c23)C1` (some centres undefined) as the molecule, how does the Ki [2] read?
Its Ki is 139 nM.

What about the Ki [3] of the same molecule?
The Ki was “Not Active”.

How did the Ki [3] turn out when `CN(C)C(=O)N[C@H]1CC[C@H](CCN2CCN(c3cccc(Cl)c3Cl)CC2)CC1` [CARIPRAZINE] was run?
Its Ki is “Not Active”.
